Experimental data published in patent US7846956B2, “Malononitrile compound as pesticides” (Sumitomo Chemical Company, Limited, priority 2004, dated 2010).

What was measured:
Type in all cases: in vivo
Musca domestics = test: Experimental Example 3: filter paper test with sucrose bait, death rate of Musca domestics; settings: 500 ppm active ingredient, 0.7 ml on filter paper, 10 female imagoes, after 24 hours, read-out: death rate of the pest
Protocol: Preparations of the present compounds (1), (2), (3), (4), (5), (6), (8), (9), (10), (11), (12), (13), (14), (15), (16), (17), (18), (19), (21), (22), (23), (24), (25), (26), (27), (31), (34), (35), (36), (37), (38), (39), (40), (42), (47), (50), (52), (54), (66), (67) and (68) obtained according to Formulation Example 5 were diluted with water so that the active ingredient concentration was 500 ppm to prepare experimental pesticidal solutions.
(§1) A filter paper having a diameter of 5.5 cm was spread on the bottom of a polyethylene cup having a diameter of 5.5 cm and 0.7 ml of the experimental pesticidal solution was added dropwise onto the filter paper. As a bait 30 mg of sucrose was uniformly placed on the filter paper. Into the polyethylene cup, 10 female Musca domestics imagoes were released and the cup was sealed with a lid. After 24 hours, the number of surviving Musca domestics was examined and the death rate of the pest was calculated.

Blattalla germanica = test: Experimental Example 4: filter paper test with sucrose bait, death rate of Blattalla germanica; settings: 144 h; 500 ppm active ingredient, 0.7 ml on filter paper; two male imagoes; after 6 days
Protocol: Preparations of the present compounds (2), (4), (5), (6), (8), (9), (11), (12), (13), (15), (17), (18), (19), (21), (24), (25), (26), (27), (35), (36), (37), (38), (40), (41), (42), (47), (50), (52), (54), (62), (64), (65), (66) and (68) obtained according to Formulation Example 5 were diluted with water so that the active ingredient concentration was 500 ppm to prepare experimental pesticidal solutions.
as §1, with “two male Blattalla gexmanica images” for “10 female Musca domestics imagoes”, “6 days,” for “24 hours,”, “Blattalla germanica” for “Musca domestics”

Culex pipiens pallens = test: Experimental Example 5: larvae in treated water, death rate of Culex pipiens pallens; settings: 24 h, active ingredient concentration 3.5 ppm in water, 20 last-instar larvae, after one day, read-out: death rate of the pest
Protocol: Preparations of the present compounds (1), (2), (4), (5), (6), (8), (9), (11), (12), (13), (14), (15), (16), (17), (18), (19), (21), (22), (23), (24), (25), (26), (27), (31), (33), (34), (35), (36), (37), (38), (39), (40), (42), (43), (47), (48), (50), (52), (53), (54), (62), (64), (65), (66), (67), (68) and (70) obtained according to Formulation Example 5 were diluted with water so that the active ingredient concentration was 500 ppm to prepare experimental pesticidal solutions.
0.7 ml of the experimental pesticidal solution was added to 100 mL of ion-exchanged water (active ingredient concentration: 3.5 ppm). Into the solution, 20 last-instar larvae of Culex pipiens pallens were released. After one day, the surviving number was examined and the death rate of the pest was calculated.

Row | SMILES | pest or weed control at 500 ppm (Musca domestics) [%] | pest or weed control at 500 ppm (Blattalla germanica) [%] | pest or weed control at 3.5 ppm (Culex pipiens pallens) [%]
1 | CCC(c1cc(C(F)(F)F)on1)C(C#N)(C#N)CCC(F)(F)F (stereo not drawn) [present compound (37)] | ≥ 90 | 100 | ≥ 95
2 | N#CC(C#N)(CCC(F)(F)F)Cc1cc(C(F)(F)C(F)(F)F)on1 [present compound (38)] | ≥ 90 | 100 | ≥ 95
3 | CC(C)c1cc(CC(C#N)(C#N)CCC(F)(F)F)no1 [present compound (40)] | ≥ 90 | 100 | ≥ 95
4 | CC(c1cc(C(C)(C)C)on1)C(C#N)(C#N)CCC(F)(F)F (stereo not drawn) [present compound (42)] | ≥ 90 | 100 | ≥ 95
5 | N#CC(C#N)(CCC(F)(F)F)Cc1cc(C(F)F)on1 [present compound (47)] | ≥ 90 | 100 | ≥ 95
6 | CC(F)c1cc(CC(C#N)(C#N)CCC(F)(F)F)no1 (stereo not drawn) [present compound (50)] | ≥ 90 | 100 | ≥ 95
7 | CC(F)(F)c1cc(CC(C#N)(C#N)CCC(F)(F)F)no1 [present compound (52)] | ≥ 90 | 100 | ≥ 95
8 | CC(C)(F)c1cc(CC(C#N)(C#N)CCC(F)(F)F)no1 [present compound (54)] | ≥ 90 | 100 | ≥ 95
9 | C=CC(c1cc(C(C)(C)O)on1)C(C#N)(C#N)CCC(F)(F)F (stereo not drawn) [present compound (66)] | ≥ 90 | 100 | ≥ 95
10 | COc1cc(CC(C#N)(C#N)CCC(F)(F)F)on1 [present compound (68)] | ≥ 90 | 100 | ≥ 95
